{"source": "patent US10517853B2", "about": "“Methods for treating epilepsy” (PTC Therapeutics, Inc., priority 2015, dated 2019)", "key": {"[1]": {"tested_on": "SCN1A nonsense mutation W192X (UAG premature stop)", "experiment": "Luciferase reporter readthrough assay, SCN1A nonsense mutation W192X construct in 293H cells", "assay_type": "cell-based", "conditions": "293H cells transfected with construct SCN1A-Trp192x; decreasing concentrations starting at 3 uM; 24 hours; FIG. 4", "text": "(§1) Luciferase reporter constructs were generated to evaluate readthrough activity of compounds at premature stop codons present in SCN1A and CDKL5 mRNA sequences. FIG. 1 is a schematic of the reporter construct used to monitor readthrough activity of SCN1A nonsense mutation W192X (UAG premature stop). FIG. 2 is a schematic of the reporter construct used to monitor readthrough activity of CDKL5 nonsense mutation R59X (UGA premature stop). FIG. 3 is a schematic of the reporter construct used to monitor readthrough activity of CDKL5 nonsense mutation R550X (UGA premature stop). In each of the constructs, luciferase reporter is flanked by a 3XHA epitope tag at the amino-terminus and a FLAG epitope tag at the C-terminus. An intron from the TPI gene was inserted in the luciferase gene. Sequences from SCN1A (see FIG. 1) and CDKL5 (see FIGS. 2 and 3) harboring disease-associated nonsense mutations were introduced in-frame with the reporter sequence such that readthrough at the premature stop codon results in the production of a functional luciferase protein.\n(§2) 293H cells were transfected with either construct SCN1A-Trp192x (FIG. 1), construct CDKL5-R59X (FIG. 2), or construct CDKL5-R550X (FIG. 3). […] The ability of ataluren to promote readthrough at the premature stop codon in each of the constructs was measured and reported as the relative light units (y-axis). […]"}, "CYP2C8": {"target": "T1, CYP2C8 (Homo sapiens, UniProt P10632)", "T1 sequence (P10632 1-490)": "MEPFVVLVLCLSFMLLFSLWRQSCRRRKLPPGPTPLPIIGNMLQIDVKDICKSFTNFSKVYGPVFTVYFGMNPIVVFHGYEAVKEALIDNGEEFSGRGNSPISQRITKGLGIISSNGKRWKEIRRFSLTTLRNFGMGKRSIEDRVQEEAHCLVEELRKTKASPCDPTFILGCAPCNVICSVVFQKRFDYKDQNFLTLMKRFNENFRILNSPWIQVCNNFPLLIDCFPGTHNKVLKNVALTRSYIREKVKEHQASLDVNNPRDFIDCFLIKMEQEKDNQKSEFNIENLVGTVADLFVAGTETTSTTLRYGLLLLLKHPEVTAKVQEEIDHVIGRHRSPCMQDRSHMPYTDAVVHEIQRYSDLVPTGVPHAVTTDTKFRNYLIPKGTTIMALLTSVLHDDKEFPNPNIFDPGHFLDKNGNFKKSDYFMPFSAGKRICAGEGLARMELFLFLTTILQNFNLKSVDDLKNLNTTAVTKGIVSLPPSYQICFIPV", "experiment": "CYP2C8 inhibition", "assay_type": "in vitro ADME"}, "CYP2C9": {"target": "CYP2C9 (Homo sapiens, UniProt P11712)", "sequence (P11712 whole entry)": "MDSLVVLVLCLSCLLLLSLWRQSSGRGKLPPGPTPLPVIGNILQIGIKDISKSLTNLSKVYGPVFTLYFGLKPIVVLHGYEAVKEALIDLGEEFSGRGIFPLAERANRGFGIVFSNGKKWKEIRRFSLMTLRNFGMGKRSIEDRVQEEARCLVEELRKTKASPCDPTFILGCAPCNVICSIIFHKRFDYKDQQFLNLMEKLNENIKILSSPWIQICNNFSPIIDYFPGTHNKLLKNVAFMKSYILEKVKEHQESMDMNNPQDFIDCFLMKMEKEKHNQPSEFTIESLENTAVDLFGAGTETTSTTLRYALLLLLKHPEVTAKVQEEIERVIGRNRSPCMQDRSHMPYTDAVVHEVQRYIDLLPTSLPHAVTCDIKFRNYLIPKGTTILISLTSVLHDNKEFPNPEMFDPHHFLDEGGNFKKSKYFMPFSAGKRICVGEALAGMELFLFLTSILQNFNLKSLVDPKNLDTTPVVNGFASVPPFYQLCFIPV", "experiment": "CYP2C9 inhibition", "assay_type": "in vitro ADME"}, "[2]": {"tested_on": "CDKL5 nonsense mutation R550X (UGA premature stop)", "experiment": "Luciferase reporter readthrough assay, CDKL5 nonsense mutation R550X construct in 293H cells", "assay_type": "cell-based", "conditions": "293H cells transfected with construct CDKL5-R550X; decreasing concentrations starting at 3 uM; 24 hours; FIG. 5", "text": "as §1, §2"}, "[3]": {"tested_on": "CDKL5 nonsense mutation R59X (UGA premature stop)", "experiment": "Luciferase reporter readthrough assay, CDKL5 nonsense mutation R59X construct in 293H cells", "assay_type": "cell-based", "conditions": "293H cells transfected with construct CDKL5-R59X; decreasing concentrations starting at 3 uM; 24 hours; FIG. 5", "text": "as §1, §2"}}}
{"smiles": "O=C(O)c1cccc(-c2noc(-c3ccccc3F)n2)c1", "note": "[ataluren, 3-[5-(2-fluoro-phenyl)-[1,2,4]oxadiazol-3-yl]-benzoic acid]", "values": [{"measurement": "readthrough at the premature stop codon (luciferase, relative light units; fold increase compared to DMSO)", "setting": "[1]", "result": "promotes concentration-dependent readthrough"}, {"measurement": "inhibition of CYP2C8", "setting": "CYP2C8", "result": "weak inhibitor"}, {"measurement": "inhibition of CYP2C9", "setting": "CYP2C9", "result": "weak inhibitor"}, {"measurement": "readthrough at the premature stop codon (luciferase, relative light units; fold increase compared to DMSO)", "setting": "[2]", "result": "promotes concentration-dependent readthrough"}, {"measurement": "readthrough at the premature stop codon (luciferase, relative light units; fold increase compared to DMSO)", "setting": "[3]", "result": "promotes concentration-dependent readthrough"}]}
